Results: patent US20030017158A1, “Method for detecting and killing epithelial cancer cells” (priority 2002, published 2003)

Tests used:
[1] = system: living oral carcinoma cells (SqCHN); assay: Selective toxicity, cell killing of carcinoma cells over 8 days; assay type: cell-based; settings: for selective toxicity towards carcinoma cells: carcinoma cells compared to normal oral epithelial cells; for cell death of carcinoma cells: incubated with dye fraction, washed, observed over 8 days
Procedure: (§1) The compounds represented by peaks 5, 6, 7 and 8, obtained during the fractionation of the toluidine blue O, are analyzed for their selective toxicity towards living oral carcinoma cells (SqCHN) compared to living normal oral epithelial cells. Separate cultures of squamous carcinoma cells and normal epithelial cells are incubated with the different dye fractions and then washed with dye-free medium. The cells are then re-incubated in growth medium and observed over a period of 8 days to determine the extent of cell killing. The compound of peak 6 results in 95% cell death of carcinoma cells, compared to only about 20% killing of normal cells.

[2] = system: living normal oral epithelial cells; assay: Selective toxicity, cell killing of normal cells over 8 days; assay type: cell-based; settings: incubated with dye fraction, washed, observed over 8 days
Procedure: as §1

[3] = system: other squamous carcinomas, adenocarcinomas, lymphomas and sarcomas; assay: Further in-vitro tests with other isolates of carcinoma cells and normal epithelial cells; assay type: cell-based; settings: conducted in the manner of Example 8
Procedure: (§2) The therapeutic characteristics of the compounds of peaks 6 and 8 are determined by further in-vitro tests, conducted in the manner of Example 8, using other isolates of carcinoma cells and normal epithelial cells. The testing profile includes other squamous carcinomas of the head and neck, esophagus, lung, cervix and skin, as well as other types of cancers, including adenocarcinomas, lymphomas and sarcomas. In-vivo “delay of tumor growth” and “tumor regression assay” tests using tumor-bearing animals, including head and neck and lung carcinomas implanted in Balb-C mice, are made to analyze the in-vivo therapeutic benefit of these compounds.

[4] = system: head and neck and lung carcinomas implanted in Balb-C mice; assay: In-vivo delay of tumor growth and tumor regression assay; settings: tumor-bearing Balb-C mice
Procedure: as §2

carcinoma cells = assay: Uptake and retention of mitochondrial marking agents in living carcinoma cells; assay type: cell-based; settings: 5 minute incubation, rinsed twice with 1% acetic acid, 2-butanol extraction, spectrophotometry
Procedure: Different concentrations of the various cationic marking agents, at 100, 50, 10 and 1 μg/ml are prepared in RPMI medium complete with 20% fetal calf serum, 1 mM glutamine, hydrocortisone, insulin, transferrin, estradiol, selenium and growth hormone.
The carcinoma cells are incubated at 37EC in tissue culture incubators with 5% CO2 and 95% relative humidity, for 5 minutes with each agent and concentration there and then rinsed twice using 2 minute incubations with 1% acetic acid. After incubation and rinsing, the cells are harvested, at 30 min., 1 hour, 2 hours, 4 hours and 8 hours. The cells are then extracted with 2-butanol and analyzed by spectrophotometry for quantitation of the marking agent.

| Structure (SMILES) | selective toxicity towards carcinoma cells [1] | cell death of carcinoma cells [1] | killing of normal cells [2] | selective toxicity to the wider variety of cancer cell types, in vitro [3] | selective toxicity, in-vivo therapeutic benefit [4] | saturation concentration (carcinoma cells) |
| --- | --- | --- | --- | --- | --- | --- |
| CNc1ccc2nc3ccc(N)c(C)c3[s+]c2c1 [peak 5] | do not exhibit the same selective toxicity | – | – | – | – | – |
| CNc1ccc2nc3cc(C)c(N)cc3[s+]c2c1 [peak 6] | selectively toxic towards carcinoma cells | 95% | about 20% | confirm the selective toxicity | confirm the selective toxicity | – |
| Cc1c(N)ccc2nc3ccc(N(C)C)cc3[s+]c12 [peak 7] | do not exhibit the same selective toxicity | – | – | – | – | – |
| Cc1cc2nc3ccc(N(C)C)cc3[s+]c2cc1N [peak 8] | selectively toxic towards carcinoma cells | 89% | about 20% | confirm the selective toxicity | confirm the selective toxicity | – |
| Cc1cc2nc3ccc(N(C)C)cc3[s+]c2cc1N.[Cl-] [toluidine blue O] | – | – | – | – | – | ≥ 10 µg/mL |
